Laboratory results reported in PubChem BioAssay AID1259407 (Chemical Carcinogenesis Research Information System (CCRIS), 2018).
Activity calls are given as the source filed them. How the calls were made is not given here.

System: CCRIS mutagenicity, Ames/micronucleus/aberration tests
Experiment: CCRIS mutagenicity studies

Nc1ccc(N)cc1
mutagenic call (End Point: IN VITRO CHROMOSOMAL ABERRATIONS, Test System: CHL CELLS, Metabolic Activation: NONE): active; positive (structural changes)
mutagenic call (End Point: IN VITRO CHROMOSOMAL ABERRATIONS, Test System: CHL CELLS, Metabolic Activation: RAT, LIVER, S-9, SODIUM PHENOBARBITAL AND 5,6-BENZOFLAVONE): active; positive (structural changes)
mutagenic call (End Point: IN VITRO MICRONUCLEUS, Test System: CHL/IU CELLS, Metabolic Activation: RAT, LIVER, S-9, PHENOBARBITAL AND 5,6-BENZOFLAVONE): active; positive
mutagenic call (End Point: In vitro micronucleus, Test System: Human lymphocytes, Metabolic Activation: Rat, Liver, S-9, Aroclor 1254): active; positive
mutagenic call (Test System: AMES SALMONELLA TYPHIMURIUM, Strain/Indicator: TA98(NR), Metabolic Activation: NONE, Method: PREINCUBATION): inactive; negative
mutagenic call (Test System: AMES SALMONELLA TYPHIMURIUM, Strain/Indicator: TA98(NR), Metabolic Activation: RAT, LIVER, S-9, AROCLOR 1254, Method: PREINCUBATION): active; positive
mutagenic call (Test System: AMES SALMONELLA TYPHIMURIUM, Strain/Indicator: TA98, Metabolic Activation: HAMSTER, LIVER, S-9, AROCLOR 1254 (30%), Method: PREINCUBATION): active; positive
mutagenic call (Test System: AMES SALMONELLA TYPHIMURIUM, Strain/Indicator: TA98, Metabolic Activation: NONE): inactive; negative
mutagenic call (Test System: AMES SALMONELLA TYPHIMURIUM, Strain/Indicator: TA98, Metabolic Activation: NONE, Method: PREINCUBATION): inactive; negative
mutagenic call (Test System: AMES SALMONELLA TYPHIMURIUM, Strain/Indicator: TA98, Metabolic Activation: NONE, Method: STANDARD PLATE): inactive; negative
mutagenic call (Test System: AMES SALMONELLA TYPHIMURIUM, Strain/Indicator: TA98, Metabolic Activation: PEA APICAL BUD S-9, Method: PREINCUBATION): inactive; negative
mutagenic call (Test System: AMES SALMONELLA TYPHIMURIUM, Strain/Indicator: TA98, Metabolic Activation: PEA APICAL BUD S-9, Method: STANDARD PLATE): inactive; negative
mutagenic call (Test System: AMES SALMONELLA TYPHIMURIUM, Strain/Indicator: TA98, Metabolic Activation: PLANT (PERSEA AMERICANA) S-117, Method: STANDARD PLATE): inactive; negative
mutagenic call (Test System: AMES SALMONELLA TYPHIMURIUM, Strain/Indicator: TA98, Metabolic Activation: PLANT (ZEA MAYS) S-9, Method: STANDARD PLATE): inactive; negative
mutagenic call (Test System: AMES SALMONELLA TYPHIMURIUM, Strain/Indicator: TA98, Metabolic Activation: RAT LIVER S-9, PHENOBARBITAL AND BETA-NAPHTHOFLAVONE, Method: PREINCUBATION): active; positive
mutagenic call (Test System: AMES SALMONELLA TYPHIMURIUM, Strain/Indicator: TA98, Metabolic Activation: RAT, LIVER, S-9, AROCLOR 1254): active; positive
mutagenic call (Test System: AMES SALMONELLA TYPHIMURIUM, Strain/Indicator: TA98, Metabolic Activation: RAT, LIVER, S-9, AROCLOR 1254 (30%), Method: PREINCUBATION): active; positive
mutagenic call (Test System: AMES SALMONELLA TYPHIMURIUM, Strain/Indicator: TA100(NR), Metabolic Activation: NONE, Method: PREINCUBATION): active; positive
mutagenic call (Test System: AMES SALMONELLA TYPHIMURIUM, Strain/Indicator: TA100(NR), Metabolic Activation: RAT, LIVER, S-9, AROCLOR 1254, Method: PREINCUBATION): inactive; negative
mutagenic call (Test System: AMES SALMONELLA TYPHIMURIUM, Strain/Indicator: TA100, Metabolic Activation: HAMSTER, LIVER, S-9, AROCLOR 1254 (30%), Method: PREINCUBATION): inactive; negative
mutagenic call (Test System: AMES SALMONELLA TYPHIMURIUM, Strain/Indicator: TA100, Metabolic Activation: NONE, Method: PREINCUBATION): inactive; negative
mutagenic call (Test System: AMES SALMONELLA TYPHIMURIUM, Strain/Indicator: TA100, Metabolic Activation: NONE, Method: STANDARD PLATE): inactive; negative
mutagenic call (Test System: AMES SALMONELLA TYPHIMURIUM, Strain/Indicator: TA100, Metabolic Activation: PEA APICAL BUD S-9, Method: PREINCUBATION): inactive; negative
mutagenic call (Test System: AMES SALMONELLA TYPHIMURIUM, Strain/Indicator: TA100, Metabolic Activation: PEA APICAL BUD S-9, Method: STANDARD PLATE): inactive; negative
mutagenic call (Test System: AMES SALMONELLA TYPHIMURIUM, Strain/Indicator: TA100, Metabolic Activation: PLANT (PERSEA AMERICANA) S-117, Method: STANDARD PLATE): inactive; negative
mutagenic call (Test System: AMES SALMONELLA TYPHIMURIUM, Strain/Indicator: TA100, Metabolic Activation: PLANT (ZEA MAYS) S-9, Method: STANDARD PLATE): inactive; negative
mutagenic call (Test System: AMES SALMONELLA TYPHIMURIUM, Strain/Indicator: TA100, Metabolic Activation: RAT LIVER S-9, PHENOBARBITAL AND BETA-NAPHTHOFLAVONE, Method: PREINCUBATION): inactive; negative
mutagenic call (Test System: AMES SALMONELLA TYPHIMURIUM, Strain/Indicator: TA100, Metabolic Activation: RAT, LIVER, S-9, AROCLOR 1254 (30%), Method: PREINCUBATION): inactive; negative
mutagenic call (Test System: AMES SALMONELLA TYPHIMURIUM, Strain/Indicator: TA100, Metabolic Activation: RAT, LIVER, S-9, AROCLOR 1254, Method: PREINCUBATION): inactive; negative
mutagenic call (Test System: AMES SALMONELLA TYPHIMURIUM, Strain/Indicator: TA100, Metabolic Activation: RAT, LIVER, S-9, AROCLOR 1254, Method: STANDARD PLATE): inactive; negative
mutagenic call (Test System: AMES SALMONELLA TYPHIMURIUM, Strain/Indicator: TA102, Metabolic Activation: NONE, Method: STANDARD PLATE): inactive; negative
mutagenic call (Test System: AMES SALMONELLA TYPHIMURIUM, Strain/Indicator: TA1535, Metabolic Activation: NONE, Method: PREINCUBATION): inactive; negative
mutagenic call (Test System: AMES SALMONELLA TYPHIMURIUM, Strain/Indicator: TA1535, Metabolic Activation: RAT LIVER S-9, PHENOBARBITAL AND BETA-NAPHTHOFLAVONE, Method: PREINCUBATION): inactive; negative
mutagenic call (Test System: AMES SALMONELLA TYPHIMURIUM, Strain/Indicator: TA1537, Metabolic Activation: NONE, Method: PREINCUBATION): inactive; negative
mutagenic call (Test System: AMES SALMONELLA TYPHIMURIUM, Strain/Indicator: TA1537, Metabolic Activation: RAT LIVER S-9, PHENOBARBITAL AND BETA-NAPHTHOFLAVONE, Method: PREINCUBATION): inactive; negative
mutagenic call (Test System: AMES SALMONELLA TYPHIMURIUM, Strain/Indicator: TA1538, Metabolic Activation: RAT, LIVER, S-9, PHENOBARBITAL, Method: STANDARD PLATE): active; positive
mutagenic call (Test System: AMES SALMONELLA TYPHIMURIUM, Strain/Indicator: TA2638, Metabolic Activation: NONE, Method: STANDARD PLATE): inactive; negative
mutagenic call (Test System: AMES SALMONELLA TYPHIMURIUM, Strain/Indicator: YG1024, Metabolic Activation: PLANT (PERSEA AMERICANA) S-117, Method: STANDARD PLATE): inactive; negative
mutagenic call (Test System: AMES SALMONELLA TYPHIMURIUM, Strain/Indicator: YG1024, Metabolic Activation: PLANT (ZEA MAYS) S-9, Method: STANDARD PLATE): inactive; negative
mutagenic call (Test System: AMES SALMONELLA TYPHIMURIUM, Strain/Indicator: YG1029, Metabolic Activation: PLANT (PERSEA AMERICANA) S-117, Method: STANDARD PLATE): inactive; negative
mutagenic call (Test System: AMES SALMONELLA TYPHIMURIUM, Strain/Indicator: YG1029, Metabolic Activation: PLANT (ZEA MAYS) S-9, Method: STANDARD PLATE): inactive; negative
mutagenic call (Test System: Ames Salmonella typhimurium, Strain/Indicator: TA98, Metabolic Activation: None, Method: Standard plate): inactive; negative
mutagenic call (Test System: Ames Salmonella typhimurium, Strain/Indicator: TA98, Metabolic Activation: Rat, Liver, S-9, Aroclor 1254 (10%), Method: Preincubation): active; positive
mutagenic call (Test System: Ames Salmonella typhimurium, Strain/Indicator: TA98, Metabolic Activation: Rat, Liver, S-9, Aroclor 1254 (10%), Method: Standard plate): active; positive
mutagenic call (Test System: Ames Salmonella typhimurium, Strain/Indicator: TA100, Metabolic Activation: None, Method: Preincubation): inactive; negative
mutagenic call (Test System: Ames Salmonella typhimurium, Strain/Indicator: TA100, Metabolic Activation: None, Method: Standard plate): inactive; negative
mutagenic call (Test System: Ames Salmonella typhimurium, Strain/Indicator: TA100, Metabolic Activation: Rat, Liver, S-9, Aroclor 1254 (10%), Method: Preincubation): inactive; negative
mutagenic call (Test System: Ames Salmonella typhimurium, Strain/Indicator: TA100, Metabolic Activation: Rat, Liver, S-9, Aroclor 1254 (10%), Method: Standard plate): inactive; negative
mutagenic call (Test System: Ames Salmonella typhimurium, Strain/Indicator: TA102, Metabolic Activation: None, Method: Preincubation): inactive; negative
mutagenic call (Test System: Ames Salmonella typhimurium, Strain/Indicator: TA102, Metabolic Activation: None, Method: Standard plate): inactive; negative
mutagenic call (Test System: Ames Salmonella typhimurium, Strain/Indicator: TA102, Metabolic Activation: Rat, Liver, S9, Aroclor 1254, Method: Preincubation): inactive; negative
mutagenic call (Test System: Ames Salmonella typhimurium, Strain/Indicator: TA102, Metabolic Activation: Rat, Liver, S-9, Aroclor 1254 (10%), Method: Preincubation): inactive; negative
mutagenic call (Test System: Ames Salmonella typhimurium, Strain/Indicator: TA102, Metabolic Activation: Rat, Liver, S-9, Aroclor 1254 (10%), Method: Standard plate): inactive; negative
mutagenic call (Test System: Ames Salmonella typhimurium, Strain/Indicator: TA104, Metabolic Activation: None, Method: Preincubation): inactive; negative
mutagenic call (Test System: Ames Salmonella typhimurium, Strain/Indicator: TA104, Metabolic Activation: Rat, Liver, S9, Aroclor 1254, Method: Preincubation): inactive; negative
mutagenic call (Test System: Ames Salmonella typhimurium, Strain/Indicator: TA1535, Metabolic Activation: None, Method: Preincubation): inactive; negative
mutagenic call (Test System: Ames Salmonella typhimurium, Strain/Indicator: TA1535, Metabolic Activation: None, Method: Standard plate): inactive; negative
mutagenic call (Test System: Ames Salmonella typhimurium, Strain/Indicator: TA1535, Metabolic Activation: Rat, Liver, S-9, Aroclor 1254 (10%), Method: Preincubation): inactive; negative
mutagenic call (Test System: Ames Salmonella typhimurium, Strain/Indicator: TA1535, Metabolic Activation: Rat, Liver, S-9, Aroclor 1254 (10%), Method: Standard plate): inactive; negative
mutagenic call (Test System: Ames Salmonella typhimurium, Strain/Indicator: TA1537, Metabolic Activation: None, Method: Preincubation): inactive; negative
mutagenic call (Test System: Ames Salmonella typhimurium, Strain/Indicator: TA 1537, Metabolic Activation: None, Method: Standard plate): inactive; negative
mutagenic call (Test System: Ames Salmonella typhimurium, Strain/Indicator: TA1537, Metabolic Activation: Rat, Liver, S-9, Aroclor 1254 (10%), Method: Preincubation): inactive; negative
mutagenic call (Test System: Ames Salmonella typhimurium, Strain/Indicator: TA1537, Metabolic Activation: Rat, Liver, S-9, Aroclor 1254 (10%), Method: Standard plate): inactive; negative
mutagenic call (Test System: CHINESE HAMSTER OVARY, Strain/Indicator: CHO-K1-BH4 (HGPRT)/6-THIOGUANINE, Metabolic Activation: NONE): inactive; negative
mutagenic call (Test System: CHINESE HAMSTER OVARY, Strain/Indicator: CHO-K1-BH4 (HGPRT)/6-THIOGUANINE, Metabolic Activation: S-9): inactive; negative
mutagenic call (Test System: E. COLI, Strain/Indicator: WP2 (PKM101), Metabolic Activation: NONE, Method: STANDARD PLATE): inactive; negative
mutagenic call (Test System: E. COLI, Strain/Indicator: WP2 UVRA (PKM101), Metabolic Activation: NONE, Method: STANDARD PLATE): inactive; negative
mutagenic call (Test System: E.COLI, Strain/Indicator: WP2UVRA, Metabolic Activation: RAT LIVER S-9, PHENOBARBITAL AND BETA-NAPHTHOFLAVONE, Method: PREINCUBATION): inactive; negative
mutagenic call (Test System: MOUSE LYMPHOMA, Strain/Indicator: L5178Y (TK+/TK-), Metabolic Activation: NONE, Method: SUSPENSION/PLATE): active; positive
mutagenic call (Test System: MOUSE LYMPHOMA, Strain/Indicator: L5178Y (TK+/TK-), Metabolic Activation: RAT, LIVER, S-9, AROCLOR 1254, Method: SUSPENSION/PLATE): active; positive
mutagenic call (Test System: Mouse lymphoma, Strain/Indicator: L5178Y (TK+/TK-), Metabolic Activation: None, Method: Suspension/plate): inactive; negative
mutagenic call (Test System: Mouse lymphoma, Strain/Indicator: L5178Y (TK+/TK-), Metabolic Activation: Rat, Liver, S-9, Aroclor 1254, Method: Suspension/plate): inactive; negative
